The values below come from patent US8287862B2, “Multidrug resistance-associated polypeptide” (Millennium Pharmaceuticals, Inc., priority 1997, dated 2012).

In series [1] the test system is MCF-7 human breast adenocarcinoma cell line. As to conditions: adriamycin-selected MDR MCF-7 vs parental MCF-7; cited from earlier work.
The test system of series [2] is MRP-β host cells. As to conditions: versus source or control cells; 16-24 hours in culture.
Method: To establish this survival advantage, triplicate cultures of MRP-β host cells, control cells and source cells (e.g., MCF-7 human breast adenocarcinoma cells) are generated in 24-well cell culture plates. Once the cultures have attained at least 80% confluency, lethal or sub-lethal amounts of a cytotoxin (e.g., adriamycin, bisantrene) are added to each well. After a sufficient period of time for cytotoxic effects to be manifested (e.g., 16-24 hours in culture), culture media comprising the cytotoxic drug are aspirated or otherwise removed, and cells are stained with a vital dye such as Trypan blue. Which commercially available vital dye is used in this procedure is a matter of choice; thus, sulforodoamine B (see Powell et al. (1990), U.S. Pat. No. 5,550,149) could be used in lieu of Trypan blue. The number of cells that remain viable (e.g., capable of excluding the dye) are counted using a hemocytometer, flow cytometer or other appropriate device.

As to `COc1cccc2c1C(=O)c1c(O)c3c(c(O)c1C2=O)C[C@@](O)(C(=O)CO)C[C@@H]3O[C@H]1C[C@H](N)[C@H](O)[C@H](C)O1` [adriamycin], the “resistance of MDR derivative cell line relative to parental (wild-type) MCF-7” value in series [1] is on record as 192 fold. Consider `C(=N\NC1=NCCN1)/c1c2ccccc2c(/C=N/NC2=NCCN2)c2ccccc12` [bisantrene], for which, in series [2], the “survival of MRP-β expressing host cells on exposure to cytotoxin” value is reported as “surviving exposure to otherwise lethal amounts”.
